Experimental data reported in patent publication US20240400560A1, “BICYCLIC HETEROCYCLIC DERIVATIVE HAVING VIRAL GROWTH INHIBITORY ACTIVITY AND PHARMACEUTICAL COMPOSITION CONTAINING SAME” (Shionogi & Co., Ltd., priority 2021, published 2024).
Read-outs that look alike come from different tables or passages of the source.

Columns and labels:
[1] = test system: SARS-CoV-2; assay: Inhibitory activity of cytopathic effect (CPE) in HEK293T/ACE2-TMPRSS2 cells; type: cell-based; conditions: Severe acute respiratory syndrome coronavirus 2, HEK-293T, 72 h
[2] = molecular target: SARS-CoV-2 3CL protease (Severe acute respiratory syndrome coronavirus 2, UniProt P0DTD1); assay: Inhibitory activity test against SARS-CoV-2 3CL proteases; type: biochemical
[3] = HEK293T/ACE2-TMPRSS2 cells, cultured 3 days, CellTiter-Glo 2.0 luminescence, read-out: EC50 (50% SARS-CoV-2 infected cell death inhibitory concentration)
[4] = read-out: IC50 (50% SARS-CoV-2 3CL protease inhibitory concentration)
[5] = IC50 (50% SARS-CoV-2 3CL protease inhibitory concentration)
[6] = 50% SARS-CoV-2 infected cell death inhibitory concentration, HEK293T/ACE2-TMPRSS2 cells, CellTiter-Glo 2.0 after 3 days culture, read-out: EC50

SMILES	EC50 [1, 3]	IC50 [2, 4]	other results
COc1nc(N2CC[C@@H](NC(C)=O)C2)cc2c1c(=O)n(-c1cncc(Cl)c1)c(=O)n2-c1ccc(F)c(Cl)c1 [Compound I-0994]	< 0.1 µM	< 0.1 µM	–
COc1nc(N2[C@@H]3CC[C@H]2CNC3)cc2c1c(=O)n(-c1cnc3ccc(Cl)cn13)c(=O)n2-c1ccc(F)c(Cl)c1 [Compound I-0806]	–	–	EC50 [1]: 0.0251 µM; IC50 [2, 5]: 0.0039 µM
COc1ccc(Cl)c(-c2cc(OC)c3c(=O)n(Cc4ncn(C)n4)c(=O)n(Cc4cc(F)c(F)c(F)c4)c3c2)c1F [Compound I-0557]	0.1 to 1 µM	< 0.1 µM	–
COc1nc(N2CC[C@@H](C#N)C2)cc2c1c(=O)n(-c1cncc(OC(F)F)c1)c(=O)n2-c1ccc(F)c(Cl)c1 [Compound I-0951]	< 0.1 µM	< 0.1 µM	–
COc1nc(N2CC[C@@H](OC)C2)cc2c1c(=O)n(-c1cncc(Cl)c1)c(=O)n2-c1ccc(F)c(Cl)c1 [Compound I-0744]	–	0.0014 µM	EC50 [1, 6]: 0.00694 µM
Cn1cnc(Cn2c(=O)c3c4c(c(N5CCC(F)(F)C5)cc3n(Cc3cc(F)c(F)c(Cl)c3)c2=O)CCO4)n1 [Compound I-0814]	< 0.1 µM	< 0.1 µM	–
COc1cc(N2CCCC2)cc2c1c(=O)n(Cc1ncn(C)n1)c(=O)n2Cc1cc(Cl)ccc1Br [Compound I-0786]	0.1 to 1 µM	< 0.1 µM	–
Cn1c(-c2cc(C#N)ccc2Cl)cc2c(c1=O)c(=O)n(-c1cnc3ccc(Cl)cn13)c(=O)n2Cc1cc(F)c(F)c(F)c1 [Compound I-0741]	–	0.0043 µM	EC50 [1, 6]: 0.105 µM
COc1nc(N2CCC(F)(F)C2)cc2c1c(=O)n(-c1cnc3ccc(C#N)cn13)c(=O)n2-c1ccc(F)c(Cl)c1 [Compound I-0654]	< 0.1 µM	< 0.1 µM	–
COc1nc(N(C)C)cc2c1c(=O)n(-c1cnc3cc(F)ccn13)c(=O)n2-c1ccc(F)c(Cl)c1 [Compound I-0986]	–	0.0065 µM	EC50 [1, 6]: 0.0071 µM
COc1nc(N2CC[C@@H](C(=O)N3CCOCC3)C2)cc2c1c(=O)n(-c1cnc3cc(F)ccn13)c(=O)n2-c1ccc(F)c(Cl)c1 [Compound I-0627]	< 0.1 µM	< 0.1 µM	–
COc1nc2cc(-c3cc(OC)c4c(=O)n(Cc5ncn(C)n5)c(=O)n(Cc5cc(F)c(F)c(Cl)c5)c4c3)c(Cl)cc2[nH]1 [Compound I-0858]	–	0.0024 µM	EC50 [1, 6]: 0.0441 µM
COc1nc(N2CCC3(COC3)C2)cc2c1c(=O)n(-c1cnc3cc(F)ccn13)c(=O)n2-c1ccc(F)c(Cl)c1 [Compound I-1039]	< 0.1 µM	< 0.1 µM	–
COc1nc(N2CCC(S(C)(=O)=O)C2)cc2c1c(=O)n(-c1cncc(Cl)c1)c(=O)n2-c1ccc(F)c(Cl)c1 (centres unmarked) [Compound I-0974]	< 0.1 µM	< 0.1 µM	–
COc1nc(N2CC[C@@H](O)C2)cc2c1c(=O)n(-c1cncc(C#N)c1)c(=O)n2-c1ccc(F)c(Cl)c1 [Compound I-0957]	–	0.0032 µM	EC50 [1, 6]: 0.00814 µM
COc1cc(-c2cc(C#N)ccc2Cl)cc2c1c(=O)n(-c1cnc3ccccn13)c(=O)n2Cc1cc(F)c(F)c(F)c1 [Compound I-0660]	< 0.1 µM	< 0.1 µM	–
Cn1cnc(Cn2c(=O)c3c4nccnc4c(NC4CC5CC5C4)cc3n(Cc3cc(F)c(F)c(Cl)c3)c2=O)n1 (centres unmarked) [Compound I-0586]	< 0.1 µM	< 0.1 µM	–
COc1nc2c(=O)n(Cc3ncn(C)n3)c(=O)n(Cc3ccc(F)c(Cl)c3)c2cc1-c1cc(C#N)ccc1Cl [Compound I-0726]	< 0.1 µM	< 0.1 µM	–
COc1nc(N2CC[C@@H](C#N)C2)cc2c1c(=O)n(-c1cnc3cc(F)ccn13)c(=O)n2-c1ccc(F)c(F)c1 [Compound I-0959]	< 0.1 µM	< 0.1 µM	–
COc1nc(N2CCC(F)(F)C2)cc2c1c(=O)n(-c1cncc(C)c1)c(=O)n2-c1ccc(F)c(Cl)c1 [Compound I-0954]	< 0.1 µM	< 0.1 µM	–
COc1nc(N2CC[C@@H](O)C2)cc2c1c(=O)n(-c1cnc3cc(F)ccn13)c(=O)n2Cc1cc(F)c(F)c(Cl)c1 [Compound I-0734]	< 0.1 µM	< 0.1 µM	–
Cn1cnc(Cn2c(=O)c3c(cc(-c4cc(C#N)ccc4Cl)c[n+]3[O-])n(Cc3cc(F)c(F)c(F)c3)c2=O)n1 [Compound I-0697]	1 to 10 µM	0.1 to 1 µM	–
COc1nc(N2[C@@H]3CC[C@H]2CNC3)cc2c1c(=O)n(-c1cnc3cc(F)ccn13)c(=O)n2-c1ccc(F)c(Cl)c1 [Compound I-0729]	–	–	EC50 ([1]; read-out: EC50 (50% SARS-CoV-2 infected cell death inhibitory concentration)): < 0.1 µM; IC50 [2, 5]: < 0.1 µM
Cn1cnc(Cn2c(=O)c3c4c(c(-c5cc(C#N)ccc5Cl)cc3n(Cc3cc(F)c(F)c(Cl)c3)c2=O)CCO4)n1 [Compound I-0811]	< 0.1 µM	< 0.1 µM	–
O=c1[nH]c(N2CCC[C@@H]2CO)cc2c1c(=O)n(-c1cnc3ccccn13)c(=O)n2Cc1cc(F)c(F)c(Cl)c1 [Compound I-0623]	< 0.1 µM	< 0.1 µM	–

SMILES	EC50 [1, 3]	IC50 [2, 4]	other results
COc1nc(N2CCOCC2)cc2c1c(=O)n(-c1cnc3cc(F)ccn13)c(=O)n2-c1ccc(F)c(Cl)c1 [Compound I-0743]	–	0.022 µM	EC50 [1, 6]: 0.0193 µM
COc1nc(N2CC[C@@H](O)C2)cc2c1c(=O)n(-c1cncc(C(F)F)c1)c(=O)n2-c1ccc(F)c(Cl)c1 [Compound I-0964]	< 0.1 µM	< 0.1 µM	–
[2H]C([2H])([2H])O[C@@H]1CCN(c2cc3c(c(OC)n2)c(=O)n(-c2cncc(C#N)c2)c(=O)n3-c2ccc(F)c(F)c2)C1 [Compound I-1026]	< 0.1 µM	< 0.1 µM	–
Cn1cnc(Cn2c(=O)c3c4c(c(-c5cc(C#N)ccc5Cl)cc3n(Cc3cc(F)c(F)c(F)c3)c2=O)[C@@H](O)CO4)n1 [Compound I-0864]	–	0.0014 µM	EC50 [1, 6]: 0.0462 µM
COc1cc(-c2cc(C#N)ccc2Cl)cc2c1c(=O)n(Cc1ncn(C)n1)c(=O)n2[C@H](C)c1cc(F)c(F)c(F)c1 [Compound I-0595]	< 0.1 µM	< 0.1 µM	–
COc1nc(N2CC[C@@H](C#N)C2)cc2c1c(=O)n(-c1cnc3cc(F)ccn13)c(=O)n2Cc1cc(F)c(F)c(Cl)c1 [Compound I-0736]	–	0.012 µM	EC50 [1, 6]: 0.0201 µM
COc1nc(N2[C@@H]3CC[C@H]2CNC3)cc2c1c(=O)n(-c1cnc3cc(Cl)ccn13)c(=O)n2Cc1cc(F)c(F)c(F)c1 [Compound I-0683]	–	–	EC50 [1]: 0.0454 µM; IC50 [2, 5]: 0.0099 µM
[2H]C([2H])([2H])O[C@@H]1CCN(c2cc3c(c(OC)n2)c(=O)n(-c2cncc(C(F)F)c2)c(=O)n3-c2ccc(F)c(Cl)c2)C1 [Compound I-0970]	< 0.1 µM	< 0.1 µM	–
COc1nc(N2CC[C@@H](C#N)C2)cc2c1c(=O)n(-c1cnc3cc(F)ccn13)c(=O)n2Cc1cc(F)c(F)c(F)c1 [Compound I-0732]	< 0.1 µM	< 0.1 µM	–
COc1nc2c(=O)n(Cc3ncn(C)n3)c(=O)n(Cc3cc(F)c(F)c(Cl)c3)c2cc1-c1nc(C(=O)NC(C)C)ccc1Cl [Compound I-0883]	–	0.0033 µM	EC50 [1, 6]: 0.0302 µM
Cn1cnc(Cn2c(=O)c3nc(OCC#N)c(-c4cc(C#N)ccc4Cl)cc3n(Cc3cc(F)c(F)c(F)c3)c2=O)n1 [Compound I-0685]	–	0.028 µM	EC50 [1, 6]: 0.0822 µM
COc1c(-c2cc(C#N)ccc2Cl)cc2c(c(=O)n(Cc3ncn(C)n3)c(=O)n2Cc2cc(F)c(F)c(F)c2)[n+]1[O-] [Compound I-0709]	1 to 10 µM	0.1 to 1 µM	–
COc1nc(N2C[C@@H]3C[C@H]2CO3)cc2c1c(=O)n(-c1cncc(C#N)c1)c(=O)n2-c1ccc(F)c(F)c1 [Compound I-0991]	< 0.1 µM	< 0.1 µM	–
COc1nc(N2CC[C@@H](O)C2)cc2c1c(=O)n(-c1cncc(OC(F)F)c1)c(=O)n2-c1ccc(F)c(F)c1 [Compound I-1040]	< 0.1 µM	< 0.1 µM	–
COc1nc(N2CC[C@@H](C#N)C2)cc2c1c(=O)n(Cc1ncn(C)n1)c(=O)n2Cc1cc(F)c(F)c(F)c1 [Compound I-0598]	–	0.018 µM	EC50 [1, 6]: 0.0136 µM
Cn1cnc(Cn2c(=O)c3c4ncn(C)c4c(N4CC[C@@H](F)C4)cc3n(Cc3cc(F)c(F)c(F)c3)c2=O)n1 (racemic) [Compound I-0554]	–	0.33 µM	EC50 [1, 6]: 2.75 µM
COc1nc2c(=O)n(Cc3ncn(C)n3)c(=O)n(Cc3cc(F)c(F)c(Cl)c3)c2cc1-c1cc(C(C)(C)O)c(F)cc1Cl [Compound I-0816]	< 0.1 µM	< 0.1 µM	–
COc1nc2c(=O)n(Cc3ncn(C)n3)c(=O)n(Cc3cc(F)c(F)c(F)c3)c2cc1-c1cc(C#N)ccc1Cl [Compound I-0699]	< 0.1 µM	< 0.1 µM	–
Cn1cnc(Cn2c(=O)c3c4c(c(-c5ncc(F)cc5Cl)cc3n(Cc3cc(F)c(F)c(Cl)c3)c2=O)CCO4)n1 [Compound I-0561]	< 0.1 µM	< 0.1 µM	–
COc1nc2c(=O)n(Cc3ncn(C)n3)c(=O)n(Cc3cc(F)c(F)c(Cl)c3)c2cc1-c1nc(C#N)ccc1Cl [Compound I-0819]	< 0.1 µM	< 0.1 µM	–
COc1nc(NC2CCC2)cc2c1c(=O)n(-c1cnc3cc(F)ccn13)c(=O)n2-c1ccc(F)c(Cl)c1 [Compound I-1053]	< 0.1 µM	< 0.1 µM	–
COc1nc(N2CC[C@@H](O)C2)cc2c1c(=O)n(-c1cnc3ccc(C#N)cn13)c(=O)n2-c1ccc(F)c(Cl)c1 [Compound I-0992]	< 0.1 µM	< 0.1 µM	–
COc1nc(C2=CCOCC2)cc2c1c(=O)n(-c1cnc3cc(F)ccn13)c(=O)n2-c1ccc(F)c(Cl)c1 [Compound I-1016]	< 0.1 µM	< 0.1 µM	–
CCN(C)c1cc2c(c(OC)n1)c(=O)n(-c1cnc3cc(F)ccn13)c(=O)n2-c1ccc(F)c(Cl)c1 [Compound I-0993]	< 0.1 µM	< 0.1 µM	–
